Results: patent US4264576A, “Contraceptive methods and compositions” (Eli Lilly and Company, priority 1980, dated 1981)
Each block holds one molecule with its values, some of them ahead of it.

Legend:
cumulus oophorus = experiment: Removal of cumulus oophorus from ova by hyaluronidase, in vitro; type: cell-based, rabbit; details: 10 μl of 10 mg./ml. compound solution in 1 ml calcium-free Ringer's solution, 37° C.
Method: In the absence of sodium sulfopropyl dodecanoate, complete removal of the cumulus oophorus is observed.
Female rabbits are given 100 units of pregnant mares serum (PMS), IM, and 134 units of HCG, IV. After 13 hours the animals are sacrificed, and the ovaries are excised. The ovaries are submerged in calcium-free Ringer's solution containing 20% rabbit serum which had been heated to 55° C. for 20 minutes. Ova with cumulus intact are removed and placed in calcium-free Ringer's solution for incubation at 37° C. Hyaluronidase (10 μl.) of a 10 mg./ml. solution in calciumfree Ringer's solution is added to 20 ova in 1 ml. of the incubation medium. To 10 ova in the same medium is added 10 μl. of a solution of sodium sulfopropyl n-dodecanoate (10 mg./ml.) in calcium-free Ringer's solution. To 10 other ova in the same media is added 10 μl. of calcium-free Ringer's solution as control. The mixtures are incubated at 37° C., and the cumulus oophorus is examined at 15 minute intervals with an American Optical stereomicroscope. In the absence of sodium sulfopropyl n-dodecanoate, the cumulus oophorus is completely removed.

[1] = Drug release rate from dimethylpolysiloxane rubber compositions in calcium-free Ringers solution; type: physicochemical; details: footnote of Table II; Calc. on basis of hyaluronidase inhibition
Method: An appropriate sample of a dimethylpolysiloxane rubber composition in which is incorporated the test compound is placed in a suitable amount of calcium-free Ringers solution, and the sample and solution are incubated together at 37° C. for a period of time (e.g. 24 hours). […] The equivalent amount of test compound in the removed solution is calculated from standard inhibition curves in which hyaluronidase inhibition is plotted against concentration of the test compound. The calculated result are expressed as micrograms of test compound released per day.
The above test may be repeated for an extended period of time, for example, for 1 day to 360 days, or more, by adding fresh calcium-free Ringer's solution after each removal of the solution for assay.
The sample weight was 4 mg. and the amount of added solution was 1 ml.

[2] = test system: Dutch Belted virgin rabbits; experiment: Antifertility effects in vivo by intrauterine administration; parameters: species or system rabbit; details: 40-mg dimethylpolysiloxane rubber rod, 10% W/W
Method: Dutch Belted virgin rabbits, each weighing 3-4 pounds, are randomly selected and anesthetized with sodium pentobarbital (50 μg./ml.) administered by IV drip. The uterus of each animal is exposed and a 40-mg. sample in the shape of a rod (3 mm. in diameter) of dimethylpolysiloxane rubber (as prepared in Example 3) containing 10% W/W of sodium sulfopropyl n-dodecanoate is sutured into the right uterine horn at a random location in between the cervix and the utero-tubal junction. The left horn is left untreated to serve as control. The rubber rod is placed into the uterine horn by passing a curved needle through it and through the uterine wall pulling the rod into the uterine lumen. The entry is closed by suturing. Animals (blank) are similarly treated using unmedicated dimethylpolysiloxane rubber to serve as a second group of controls. The animals are given 300,000 units of Duracillin® per day (in four doses) and are allowed to recover for 14 days. Each animal is bred to a male of proven fertility and is immediately given a dose (IV) of appropoximately 100 units of human chorionic gonadotropin (HCG) to facilitate ovulation. Fourteen days after breeding, the animal are sacrificed by cervical dislocation and the uterine horns are examined for implanted embryos. The number of embryos per uterine horn are recorded.

[3] = test system: virgin dutch belted female rabbit; experiment: Antifertility effects in vivo by intravaginal administration; details: 1 ml of equal volumes Ky-jelly and 10 mg./ml. solution, before breeding, 6 animals
Method: Equal volumes of Ky-jelly® and either Ca^++ free Ringer's solution or a 10 mg./ml. solution of the compound to be tested in Ca^++ free Ringer's solution are well mixed. One milliliter of this is placed into the vagina of a virgin dutch belted female rabbit using a syringe. The female is then immediately bred to a fertile buck. The female is injected I.V. with 100 units of human chorionic gonadotrophin to assure a good ovulation rate.
After approximately 14 days the females are sacrificed by cervical dislocation and the genital system examined for the number of embryos.

acrosin = acrosin (Homo sapiens, UniProt P10323); experiment: Acrosin inhibition in vitro; type: biochemical; details: statement in words
Chain of acrosin (P10323 20-421, species assumed): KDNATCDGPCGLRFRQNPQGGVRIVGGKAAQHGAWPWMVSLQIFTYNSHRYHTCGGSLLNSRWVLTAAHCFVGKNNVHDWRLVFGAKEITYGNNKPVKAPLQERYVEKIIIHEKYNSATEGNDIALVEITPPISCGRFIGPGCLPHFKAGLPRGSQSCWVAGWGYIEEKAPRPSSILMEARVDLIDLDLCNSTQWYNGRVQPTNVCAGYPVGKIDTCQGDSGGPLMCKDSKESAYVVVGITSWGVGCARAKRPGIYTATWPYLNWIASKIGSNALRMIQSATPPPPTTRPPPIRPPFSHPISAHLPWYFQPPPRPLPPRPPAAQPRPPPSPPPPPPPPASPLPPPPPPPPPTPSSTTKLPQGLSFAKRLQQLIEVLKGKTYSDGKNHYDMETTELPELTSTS

Molecule: CCCCCCCCCCCC(=O)OCCCS(=O)(=O)O.[Na] [CH3 (CH2)10, n=3, sodium sulfopropyl dodecanoate]
- state of the cumulus oophorus of rabbit ova incubated with hyaluronidase (cumulus oophorus): the cumulus oophorus remain substantially intact
- state of the cumulus oophorus of rabbit ova incubated with hyaluronidase (cumulus oophorus; listed as sodium sulfopropyl n-dodecanoate): the cumulus remains substantially intact
- Release rate from dimethylpolysiloxane, in vitro [1]: 1 to 3 mg/day
- Total No. of embryos ([2]; in right uterine horn, 11 horns, 14 days after breeding): 1
- [drawing 14] (number of embryos per uterine horn) ([2]; in uterine horn, p < .001 compared to untreated and to blank): 0.09
- Avg. No. of Embryos per animal [3]: 0
- No. of embryos ([3]; approximately 14 days): 0

Molecule: CCCC/C=C\CCCCCCCC(=O)OCCCS(=O)(=O)O.[Na] [cis- CH3 (CH2)3 CHCH(CH2)7, n=3, sodium sulfopropyl myristoleate]
- anti-acrosin activity (inhibition in vitro of the action of acrosin) (acrosin): anti-acrosin activity

Next, values leading:

- anti-acrosin activity (inhibition in vitro of the action of acrosin) (acrosin): anti-acrosin activity
Molecule: CCCC/C=C/CCCCCCCC(=O)OCCCS(=O)(=O)O [trans- CH3 (CH2)3 CHCH(CH2) 7, n=3, sodium sulfopropyl myristelaidate]

- anti-acrosin activity (inhibition in vitro of the action of acrosin) (acrosin): anti-acrosin activity
Molecule: sodium sulfopropyl 15-methylheptadecanoate

- anti-acrosin activity (inhibition in vitro of the action of acrosin) (acrosin): anti-acrosin activity
Molecule: sodium sulfopropyl 16-methylheptadecanoate
